Reference: ChEMBL document CHEMBL5625265, “Exploring 2-methyl-substituted vitamin K3 derivatives with potent inhibitory activity against the 3CL protease of SARS-CoV-2” (Bioorg Med Chem Lett, 2024)
The source made the active and inactive calls. The rule behind the calls is not given here.

Columns and labels:
[1] = target: Replicase polyprotein 1ab (Severe acute respiratory syndrome coronavirus 2) (UniProt P0DTD1); test: Inhibition of SARS-CoV-2 3CL protease at 10 uM using Dabcyl-KTSAVLQSGFRKME-Edans as a substrate preincubated for 30 mins followed by substrate addition and measured after for 4 hrs by FRET assay relative to control; conditions: time 4.5 hrs
[2] = target: Replicase polyprotein 1ab (Severe acute respiratory syndrome coronavirus 2, UniProt P0DTD1); test: Inhibition of SARS-CoV-2 3CL protease using Dabcyl-KTSAVLQSGFRKME-Edans as a substrate preincubated for 30 mins followed by substrate addition and measured after for 4 hrs by FRET assay

In the case of `CC(=O)CCC1=CC(=O)c2ccccc2C1=O`, the inhibition [1] is reported as “Active”.

`CC1=CC(=O)c2ccccc2C1=O` showed an inhibition [1] of 40%.

In the case of `O=C1C=C(C2CCC2)C(=O)c2ccccc21`, the inhibition [1] is reported as “Active”.

For `O=C1C=C(C2CC2)C(=O)c2ccccc21`, the inhibition [1] was “Active”.

With `O=C1C=C(Sc2ccccc2)C(=O)c2ccccc21` the inhibition [1] was “Active” and the IC50 [2] was 0.964 µM.

For `O=C1C=C(Oc2ccccc2)C(=O)c2ccccc21`, the inhibition [1] was “Active”.

`CCSC1=CC(=O)c2ccccc2C1=O` was tested, and the inhibition [1] was “Active” and the IC50 [2] was 5.35 µM.
